Assays:
[1] = test system: Human immunodeficiency virus 1; assay: Antiviral activity against HIV1 3B in human MT4 cells assessed as reduction in p24 antigen levels after 72 hrs by multi-cycle viral replication assay in presence of 50% normal human serum; format: functional
[2] = test system: Human immunodeficiency virus 1; assay: Antiviral activity against wild type HIV1 3B in human P4/R5 cells assessed as beta-galactosidase activity by single-cycle viral replication assay in presence of 10% FBS; format: functional, organism-based; details: Human immunodeficiency virus 1, 3B
[3] = test system: Human immunodeficiency virus 1; assay: Ratio of IC50 for HIV1 3B with integrase F121Y mutation to IC50 for wild type HIV1 3B by single-cycle viral replication assay in presence of 10% FBS; format: functional
[4] = test system: Human immunodeficiency virus 1; assay: Ratio of IC50 for HIV1 3B with integrase T66I/S153Y mutation to IC50 for wild type HIV1 3B by single-cycle viral replication assay in presence of 10% FBS; format: functional
[5] = test system: Human immunodeficiency virus 1; assay: Ratio of IC50 for HIV1 3B with integrase N155S mutation to IC50 for wild type HIV1 3B by single-cycle viral replication assay in presence of 10% FBS; format: functional
[6] = Clearance in Sprague-Dawley rat at 2 mg/kg, iv; format: ADME, organism-based; set-up: dose 2 mg/kg, route intravenous; details: in vivo
[7] = Volume of distribution in Sprague-Dawley rat at 2 mg/kg, iv; format: ADME, organism-based; set-up: dose 2 mg/kg, route intravenous; details: in vivo
[8] = Plasma half life in Sprague-Dawley rat at 2 mg/kg, iv; format: ADME, organism-based; set-up: dose 2 mg/kg, route intravenous
[9] = Oral bioavailability in Sprague-Dawley rat at 10 mg/kg; format: ADME, organism-based; details: in vivo
[10] = test system: Human immunodeficiency virus 1; assay: Antiviral activity against HIV1 3B in human MT4 cells assessed as reduction in p24 antigen levels after 72 hrs by multi-cycle viral replication assay in presence of 10% FBS; format: functional
[11] = biological target: Human immunodeficiency virus type 1 integrase (Human immunodeficiency virus 1, UniProt Q7ZJM1); assay: Inhibition of HIV1 integrase strand transfer activity
[12] = test system: Human immunodeficiency virus 1; assay: Antiviral activity against HIV1 with integrase Q148K mutation relative to wild type HIV1; format: functional
[13] = Oral bioavailability in Beagle dog; format: ADME, organism-based, Canis lupus familiaris; details: in vivo
[14] = Clearance in Beagle dog; format: ADME, organism-based, Canis lupus familiaris; details: in vivo
Canis familiaris = assay: Half life in iv dosed Beagle dog; format: ADME, organism-based, Canis lupus familiaris; details: in vivo

Chain of Human immunodeficiency virus type 1 integrase (Q7ZJM1 whole entry): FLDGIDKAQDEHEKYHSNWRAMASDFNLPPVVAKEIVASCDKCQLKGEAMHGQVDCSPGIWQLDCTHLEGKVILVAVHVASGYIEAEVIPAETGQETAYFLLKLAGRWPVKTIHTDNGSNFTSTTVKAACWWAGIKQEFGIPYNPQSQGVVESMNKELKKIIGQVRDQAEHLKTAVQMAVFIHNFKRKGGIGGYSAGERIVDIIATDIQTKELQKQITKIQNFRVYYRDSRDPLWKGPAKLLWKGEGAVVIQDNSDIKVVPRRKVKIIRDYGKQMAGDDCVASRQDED

| SMILES | IC95 [1] | IC50 [2] | Ratio IC50 [3] | Ratio IC50 [4] | Ratio IC50 [5] | clearance [6] | Vd [7] | half-life [8] | bioavailability [9] | Antiviral activity (p24 reduction) [10] | IC50 [11] | fold change (FC) [12] | bioavailability [13] | clearance [14] | T1/2 (Canis familiaris) |
| --- | --- | --- | --- | --- | --- | --- | --- | --- | --- | --- | --- | --- | --- | --- | --- |
| CCN1C[C@H](C)n2c(c(O)c3c(=O)n(Cc4ccc(F)c(Cl)c4)ncc32)C1=O | 160 nM | 19 nM | 2 | 1 | 7 | 0.27 mL/min/kg | 0.3 L/kg | 9.5 h | 13% | 31 nM | – | – | – | – | – |
| Cc1nn(Cc2ccc(F)cc2)c(=O)c2c(O)c3n(c12)CCN(C)C3=O | 130 nM | 21 nM | 10 | 8 | 48 | – | – | – | – | 43 nM | – | – | – | – | – |
| CCN1CC(C)(C)n2c(c(O)c3c(=O)n(Cc4ccc(F)cc4)ncc32)C1=O | 30 nM | 19 nM | 10 | 3 | 27 | 0.68 mL/min/kg | 0.3 L/kg | 5.2 h | 13% | 10 nM | – | – | – | – | – |
| CC(C)N1C[C@H](C)n2c(c(O)c3c(=O)n(Cc4ccc(F)c(Cl)c4)ncc32)C1=O | 220 nM | 28 nM | 1 | 1 | 3 | 0.17 mL/min/kg | 0.2 L/kg | 13 h | 14% | 30 nM | – | – | – | – | – |
| CCN1C[C@H](C)n2c(c(O)c3c(=O)n(Cc4ccc(F)cc4)nc(C)c32)C1=O | 40 nM | 14 nM | 1 | 1 | 6 | 17 mL/min/kg | 2.6 L/kg | 6.2 h | 7% | 17 nM | – | – | – | – | – |
| Cc1nn(Cc2ccc(F)cc2)c(=O)c2c(O)c3n(c12)[C@H](C)CN(C)C3=O | 1000 nM | 66 nM | 9 | 8 | 91 | – | – | – | – | 250 nM | – | – | – | – | – |
| CCN1C[C@H](C)n2c(c(O)c3c(=O)n(Cc4ccc(F)cc4)ncc32)C1=O | 46 nM | 16 nM | 5 | 1 | 27 | 0.5 mL/min/kg | 0.2 L/kg | 6 h | 31% | 24 nM | – | – | – | – | – |
| Cc1nn(Cc2ccc(F)cc2)c(=O)c2c(O)c3n(c12)[C@@H](C)CN(C)C3=O | 31 nM | 10 nM | 4 | 2 | 20 | – | – | – | – | 10 nM | – | – | – | – | – |
| CCN1C[C@@H](C)n2c(c(O)c3c(=O)n(Cc4ccc(F)cc4)ncc32)C1=O | 500 nM | 52 nM | 8 | 9 | 10 | – | – | – | – | 250 nM | – | – | – | – | – |
| CN1CCn2c(c(O)c3c(=O)n(Cc4ccc(F)cc4)ncc32)C1=O | 380 nM | 72 nM | 11 | 7 | 53 | – | – | – | – | 120 nM | – | – | – | – | – |
| CC(C)N1C[C@H](C)n2c(c(O)c3c(=O)n(Cc4ccc(F)cc4)ncc32)C1=O | 26 nM | 19 nM | 2 | 1 | 6 | 0.17 mL/min/kg | 0.2 L/kg | 12 h | 21% | 13 nM | ≤ 10 nM | 45 | < 5% | 10 mL/min/kg | 1 h |
| Cc1nn(Cc2ccc(F)cc2)c(=O)c2c(O)c3n(c12)[C@@H](C)CN(C(C)C)C3=O | 35 nM | 10 nM | 1 | 1 | 2 | 3 mL/min/kg | 0.3 L/kg | 5.3 h | 17% | 16 nM | ≤ 10 nM | 3 | < 5% | 10 mL/min/kg | 1 h |

From ChEMBL document CHEMBL1156547, “10-Hydroxy-7,8-dihydropyrazino[1',2':1,5]pyrrolo[2,3-d]pyridazine-1,9(2H,6H)-diones: potent, orally bioavailable HIV-1 integrase strand-transfer inhibitors with activity against integrase mutants” (Bioorg Med Chem Lett, 2008)
